Measured values from patent US20050191612A1, “Method of screening insulin content enhancer” (priority 2002, published 2005).

Experiments:
SD rats = assay: Glucose tolerance test for SD rats by one oral dose; assay type: in vivo, rat; settings: 100 mg/kg intraperitoneally 5 min before 2 g/kg oral glucose, at 30 minutes, p<0.05
Procedure: (§1) SD rats (4 weeks old; CLEA JAPAN) were made to fast overnight, and 2 g/kg of glucose was orally administered. Compound A (100 mg/kg) had been intraperitoneally administered 5 minutes before the glucose administration. An appropriate amount of blood was taken at 0 minute, 30 minutes, 60 minutes, and 120 minutes after the glucose administration, and used for the measurement of a blood glucose level and a concentration of plasma insulin.
(§2) For measuring the blood glucose level, a supernatant obtained by mixing blood and 0.33 mol/L perchloric acid (blood:0.33 mol/L perchloric acid=1:10) and centrifuging the mixture (3000×g, 10 minutes, 4° C.) was used. For measuring the concentration of plasma insulin, a supernatant obtained by centrifuging blood (3000×g, 10 minutes, 4° C.) was used. Further, Glucose C test Wako (Wako) was used in the measurement of the blood glucose level, and a rat insulin assay system (Amersham) was used in the measurement of the concentration of plasma insulin.
FIG. 4 illustrates a time course of the concentration of plasma insulin (unit=ng/mL) after the oral administration of glucose, and FIG. 5 illustrates a time course of the blood glucose level (unit=mg/dL) after the oral administration of glucose. The mark “*” in FIGS. 4 and 5 denotes that a significant difference from the group to which compound A had not been administered was p<0.05 (Student's t-test).

[1] = test system: GK (Goto-Kakizaki) rats (type II diabetes models); assay: Glucose tolerance test for GK (Goto-Kakizaki) rats by one oral dose; assay type: in vivo, rat; settings: 100 mg/kg orally, at 30 and 60 minutes after glucose administration
Procedure: as §1, §2
Then, a glucose tolerance test for GK (Goto-Kakizaki) rats (type II diabetes models with incomplete insulin secretion; 7 weeks old; Charles River Japan) by one oral dose was carried out. The GK rat line was established by selectively mating wistar rats in accordance with an index of a poor tolerance in an oral glucose tolerance test, by Yoshio Goto, et al., School of Medicine, Tohoku University, in 1975. […]

[2] = test system: insulin promoter activity in mouse pancreatic β cell line NIT1 cells; assay: Insulin promoter reporter (plasmid InsPro) luciferase activity in NIT1 cells; assay type: cell-based; settings: compound 30 μmol/L, treatment 31 hours, p<0.01
Procedure: A transfection reagent (LIPOFECTAMINE 2000; GIBCO BRL, or FuGENE6; Boeringer Mannheim) was used to introduce plasmid InsPro (1-10 ng) prepared in Example 2 to mouse pancreatic β cell line NIT1 cells (4×10^4 cells). The trasfected cells were seeded on a 96-well plate. A Dulbecco modified Eagles' medium (DMEM) or F-12 medium containing 10% fetal calf serum (FCS) was used as a medium. After the seeding, the cells were cultured for 18-20 hours. […] After the medium was aspirated, the cells were lysed with a cell lysing solution (cell lysis buffer LCβ; Toyo Ink Mfg.). A luciferase activity of each lysate was measured by a commercially available measuring kit (PicaGene Luminescent kit; Toyo Ink Mfg.) and a measuring apparatus (ML3000 microtiter plate luminometer; Dynatech Laboratories). […] Further, where the above procedure is repeated except for using a cell not expressing the polypeptide for a screening tool, as a control cell, instead of the cell for a screening tool, when the insulin promoter reporter activity is not increased in the control cell, it can be judged that such a test substance can activate the polypeptide consisting of the amino acid sequence of SEQ ID NO: 2.
Next, compounds A-E were evaluated in a manner similar to that described in Example 5. More particularly, a 96-well plate coated with collagen was used as the 96-well plate, and DMEM was used as the medium. […]

For `S=C(OCCc1ccncc1)c1ccccc1` [compound A, 2-(pyridine-4-yl)ethyl thiobenzoate], the “concentration of plasma insulin after glucose administration” value (SD rats) was “significant increase”, the “increase of the blood glucose level by the glucose administration” value (SD rats) was “significantly suppressed” and the “increase of the blood glucose level by the glucose administration” value [1] was “significantly suppressed”. For the same compound, the “increased value of the reporter activity with respect to control group” value [2] was ≥ 1.5 times.
